Data on 2 molecules can be found in patent US11369631B1, “Oral gelling liquid formulations” (UMM Rainforest Innovations, priority 2019, dated 2022).

This series is described as follows: Rheological analysis of thermal gelation temperature (oscillation temperature sweep, abrupt increase in G′). Format: physicochemical. The settings on record: for αG, rate of change in gelation temperature as a function of additive composition: 2% w/v HPMC 2910, linear fit TGel=T0−αGx (FIG. 5). From the text:
Rheology is the most direct and reliable way to determine the sol-gel transition temperature, as well as characterize the rheological properties of both solution and subsequent gel. As a result, a rheometer was chosen to determine the sol-gel transition temperature of the HPMC solutions disclosed. Rheological properties such as dynamic moduli G′, G″, and complex viscosity η* change when the temperature is in the vicinity of the sol-gel transition. The rheometer is able to measure these properties during heating.
During the routine measurements in these studies, the following procedure was observed: (i) Each HPMC solution was placed on to the bottom Peltier plate of the Discovery Hybrid HR-2 rheometer (TA Instruments, Newcastle, Del., USA) equipped with a Peltier […] temperature system and a 50 mm parallel plate; (ii) Oscillation temperature sweep was performed to determine the effect of temperatures on complex viscosity (η*), storage modulus (G′), and loss modulus (G″) at angular frequency of 1 rad/s and stress applied was 0.4 Pa; (iii) In this study samples were heated in the range of 10-80° C. at a rate of 1° C./min. A thin layer of low-viscosity silicon oil was placed around the sample to prevent dehydration during measurements; (iv) All measurements were repeated in triplicate. The abrupt increase in G′, which is accompanied by a sharp increase in viscosity was considered to be a suitable way to define a thermal gelation temperature.
Statistical differences in the thermal gelation temperature of different hypromellose formulations containing different halide salt concentrations were determined using a one-way ANOVA test using Microsoft Excel Analysis Toolpak (Microsoft Inc., Redmond, Wash.). P values of <0.05 were considered statistically significant.

For the molecule `[Cl-].[Na+]` [NaCl, sodium chloride], the “αG, rate of change in gelation temperature as a function of additive composition” value is reported as about 4.0.

With `[F-].[Na+]` [NaF, Sodium fluoride], the “αG, rate of change in gelation temperature as a function of additive composition” value is on record as about 14.5. The “factor by which αG-NaF is greater than αG-NaCl” value (2% w/v HPMC 2910) is listed as about 3.6 times.
